Measurements reported in patent US12606635B2, “Glypican-2-binding moieties, chimeric antigen receptors and uses thereof” (Nanjing Legend Biotech Co., Ltd., priority 2020, dated 2026).

Tests used:
SH-SY5Y tumor cells = assay: In vitro repetitive challenge assay with Compound A; format: cell-based, human
Description: To evaluate the effect of 3-(4-amino-1-oxo-1,3 dihydro-2H-isoindol-2-yl)piperidine-2,6-dione (Compound A) on CAR T cell recursive killing potential, T cell expansion and survival, an in vitro repetitive challenge assay was employed. Exemplary CAS70950VH6-BBz CAR T cells on day 11 post-transduction were co-cultured with SH-SY5Y tumor cells at an effector (CAR T) to target cell ratio of 1:2. The co-culture media was supplemented with 10 μM Compound A throughout this study. CAR T cells were re-challenged with tumor cells every 3 days (round 1, round 2, round 3 and round 4). CAR T cells and tumor cells co-cultured without addition of Compound A was used as a control. The percentages of CD3^+ T cells, percentages of CD3^+CAR^+ T cells were analyzed by flow cytometer. The amount of IFNγ in the co-culture supernatant was quantified using HTRF human IFNγ AlphaLISA kit (Perkin Elmer, #62HIFNGPEH) as described in Example 6.

SH-SY5Y cells = assay: Cytotoxicity of CAR T cells in presence of Compound A gradient; format: cell-based, human; conditions: 0.04-30 μM Compound A, E:T 0.2:1, 20 hours, FIG. 10
Description: To evaluate if Compound A influence to the cytotoxicity of CAR T against tumor cell, Compound A (CAS Number:191732-72-6, Sigma-Aldrich, St. Louis) stock was serially diluted to final concentration of 30, 10, 3.33, 1.11, 0.37, 0.12 and 0.04 μM using complete growth medium. In the presence of Compound A gradient, CAR T cells were co-incubated with tumor cells at an effector (CAR T) to target cell ratio of 0.2:1 for 20 hours. CAR T cells and tumor cells co-cultured without addition of Compound A served as a control. Cytotoxicity of CAR T cells on tumor cells was estimated using the Cytotoxicity Detection Kit (LDH) (Roche, #11644793001) as described in Example 6.

[1] = tested on: neuroblastoma SH-SY5Y xenograft; assay: In vivo combination of Compound A and CAR T cells in SH-SY5Y xenograft; conditions: FIG. 12A
[2] = tested on: neuroblastoma SH-SY5Y xenograft; conditions: mouse, in vivo

SMILES: Nc1cccc2c1CN(C1CCC(=O)NC1=O)C2=O (stereo not shown) [Compound A, 3-(4-amino-1-oxo-1,3 dihydro-2H-isoindol-2-yl)piperidine-2,6-dione]
- IFNγ released from CAS70950VH6-BBz CAR T cells compared to non-treated CAR T cells (SH-SY5Y tumor cells; 10 μM Compound A): higher amount of IFNγ
- CD3+CAR+ T cells survival and expansion after repetitive tumor challenges (SH-SY5Y tumor cells; CAS70950VH6-BBz CAR T cells with 10 μM Compound A, FIG. 11A-11B): promoted CD3^+CAR^+ T cells survival and expansion
- effector activity of CAS70950VH6-BBz CAR T cells after repetitive tumor challenges (SH-SY5Y tumor cells; supplemented with 10 μM Compound A, FIG. 11A-11B): maintained their effector activity
- effect of Compound A on cytotoxicity of CAS70950VH6-BBz CAR T cells against SH-SY5Y (SH-SY5Y cells): not impaired
- tumor regression, Compound A in combination with CAS70950VH6-BBz CAR-T cells ([1]; Compound A 7.5 mg/kg i.p. 21 days plus 1.5×10^6 CAR+ T cells): more pronounced tumor regression
- tumor growth, single treatment ([1]; twelve days after treatment, CAR T 1.5×10^6 i.v. or Compound A 7.5 mg/kg i.p. for 21 days): did not achieve any tumor suppression
- promotion of CAR+ T cells expansion by Compound A co-administration [2]: about 6 fold
